“And” between values parts separate entries of the source, which are not always exact repeats. Equal values may be shown once. “Also recorded” adds a separate entry of the source.
Tests used:
insects and mites = experiment: insecticidal and miticidal activity (general); details: in vivo
Strongyloides [1] = experiment: Example 31 lamb test, Strongyloides; assay type: in vivo; details: for average number of Strongyloides remaining: group average; for total number of Strongyloides remaining: group total; for mean percentage efficacy against Strongyloides: vs unmedicated controls
Protocol: (§1) At both dosages, the compound p-toluoyl chloride phenylhydrazone was efficacious against Haemonchus, Ostertagia, Nematodirus, Trichostrongylus, Strongyloides, Oesophagostomum, and Cooperia.
(§2) In th comprehesive test with 100 mg./kg. and 200 mg./kg. dosages of p-toluoyl chloride phenylhydrazone, five lambs were used for each dosage level, and five lambs were maintained as unmedicated controls. Daily egg counts in the feces were made before and after treatment. The lambs were killed and examined post-mortem for worms present 11 days after treatment. Helminth populations were recovered, enumerated and identified.
(§3) The mean percentage efficacy against specific helminths in the test lambs was calculated by subtracting the average number of the helminths observed in the treated lambs, postmortem, from the average number observed in the unmedicated controls, post-mortem; dividing the remainder by the latter average number; and multiplying by 100. Accordingly, the means percentage efficacies against the various helminths identified in the test lambs were calculated and found to be as follows: […]

Nematodirus [2] = experiment: Example 31 lamb test, Nematodirus; assay type: in vivo; details: for average number of Nematodirus remaining: group average; for total number of Nematodirus remaining: group total; for mean percentage efficacy against Nematodirus: vs unmedicated controls
Protocol: as §1, §2, §3

Ostertagia [3] = experiment: preliminary test with worm infested lambs, Ostertagia; assay type: in vivo; details: one lamb
Protocol: (§4) A preliminary test with lambs was effected by maintaining worm infested lambs under satisfactory environmental conditions with feed and water available ad libitum. Pretreatment fecal examinations were made in order to characterize and evaluate the parasitism of each animal. The presence of helminth ova was recorded in terms of the number of eggs per gram of feces.
(§5) On the day of treatment, each lamb was weighed and a dosage for it was calculated in terms of milligrams of compound per kilogram of body weight. The calculated dosage of compound was pulverized and packed in a gelatin capsule for oral administration.

lambs = details: in vivo
Protocol: as §2, with “At both dosages, the compound p-toluoyl chloride phenylhydrazone was efficacious against Haemonchus, Ostertagia, Nematodirus, Trichostrongylus, Strongyloides, Oesophagostomum, and Cooperia. […] In” for “In”

Trichostrongylus [4] = experiment: preliminary test with worm infested lambs, Trichostrongylus; assay type: in vivo; details: one lamb
Protocol: as §4, §5

Haemonchus [5] = experiment: Example 31 lamb test, Haemonchus; assay type: in vivo; details: for average number of Haemonchus remaining: group average; for total number of Haemonchus remaining: group total; for mean percentage efficacy against Haemonchus: vs unmedicated controls
Protocol: as §1, §2, §3

Trichuris ovis = experiment: preliminary test with worm infested lambs, Trichuris; assay type: in vivo; details: one lamb, 400 mg./kg. oral
Protocol: as §4, §5

Trichostrongylus [6] = experiment: Example 31 lamb test, Trichostrongylus; assay type: in vivo; details: for average number of Trichostrongylus remaining: group average; for total number of Trichostrongylus remaining: group total; for mean percentage efficacy against Trichostrongylus: vs unmedicated controls
Protocol: as §1, §2, §3

helminths [7] = experiment: Example 31 lamb test, helminths overall; assay type: in vivo; details: 100 mg. and 200 mg. per kg
Protocol: as §1, §2, §3

helminths [8] = experiment: preliminary test with worm infested lambs, helminths overall; assay type: in vivo; details: one lamb
Protocol: as §4, §5
In this preliminary test one lamb received 200 mg. p-toluoyl chloride phenylhydrazone per kilogram of body weight - a total dosage of 5.0 g.

parasitic worms = experiment: anthelmintic activity (general; sheep); details: in vivo
Trichuris = experiment: Example 31 lamb test, Trichuris; assay type: in vivo; details: for average number of Trichuris remaining: group average; for total number of Trichuris remaining: group total
Protocol: as §2, §3

Strongyloides [9] = experiment: preliminary test with worm infested lambs, Strongyloides; assay type: in vivo; details: one lamb
Protocol: as §4, §5

Oesophagostomum [10] = experiment: Example 31 lamb test, Oesophagostomum; assay type: in vivo; details: for average number of Oesophagostomum remaining: group average; for total number of Oesophagostomum remaining: group total; for mean percentage efficacy against Oesophagostomum: vs unmedicated controls
Protocol: as §1, §2, §3

Oesophagostomum [11] = experiment: preliminary test with worm infested lambs, Oesophagostomum; assay type: in vivo; details: one lamb, 300 mg./kg. oral
Protocol: as §4, §5

Bunostomum = experiment: Example 31 lamb test, Bunostomum; assay type: in vivo; details: 200 mg./kg.
Protocol: as §1, §2, §3

Nematodirus [12] = experiment: preliminary test with worm infested lambs, Nematodirus; assay type: in vivo; details: one lamb
Protocol: as §4, §5

tapeworm Moniezia = experiment: Example 31 lamb test, tapeworm; assay type: in vivo
Protocol: as §1, §2, §3

Ostertagia [13] = experiment: Example 31 lamb test, Ostertagia; assay type: in vivo; details: for average number of Ostertagia remaining: group average; for total number of Ostertagia remaining: group total; for mean percentage efficacy against Ostertagia: vs unmedicated controls
Protocol: as §1, §2, §3

Cooperia = experiment: Example 31 lamb test, Cooperia; assay type: in vivo; details: for average number of Cooperia remaining: group average; for total number of Cooperia remaining: group total; for mean percentage efficacy against Cooperia: vs unmedicated controls
Protocol: as §1, §2, §3

Haemonchus [14] = experiment: preliminary test with worm infested lambs, Haemonchus; assay type: in vivo; details: one lamb, 300 mg./kg. oral
Protocol: as §4, §5

Compound: O=[N+]([O-])c1ccc(NN=C(Cl)c2ccccc2)c([N+](=O)[O-])c1 [Benzoyl chloride (2,4-dinitrophenyl)hydrazone, reference compound]
- insecticidal and miticidal activity (insects and mites): relatively inactive

Compound: Fc1c(F)c(F)c(C(Cl)=NNc2ccccc2)c(F)c1F [pentafluorobenzoyl chloride phenylhydrazone]
- insecticidal and miticidal activity (insects and mites): outstanding insecticidal and miticidal agent

Compound: Cc1ccc(C(Cl)=NNc2ccccc2)cc1 [p-toluoyl chloride phenylhydrazone]
- efficacy against Strongyloides (in words) (Strongyloides [1]; 100 mg. and 200 mg. per kg): efficacious
- number of Strongyloides recovered at necropsy, individual lamb (Strongyloides [1]; 100 mg./kg.): 2 and 0 and 11
- average number of Strongyloides remaining (Strongyloides [1]; 100 mg./kg.): 3
- total number of Strongyloides remaining (Strongyloides [1]; 100 mg./kg.): 13
- mean percentage efficacy against Strongyloides (Strongyloides [1]; 100 mg./kg.): 97.9%
- number of Strongyloides recovered at necropsy, individual lamb (Strongyloides [1]; 200 mg./kg.): 0
- average number of Strongyloides remaining (Strongyloides [1]; 200 mg./kg.): 0
- total number of Strongyloides remaining (Strongyloides [1]; 200 mg./kg.): 0
- mean percentage efficacy against Strongyloides (Strongyloides [1]; 200 mg./kg.): 100%
- efficacy against Nematodirus (in words) (Nematodirus [2]; 100 mg. and 200 mg. per kg): efficacious
- number of Nematodirus recovered at necropsy, individual lamb (Nematodirus [2]; 100 mg./kg.): 0
- average number of Nematodirus remaining (Nematodirus [2]; 100 mg./kg.): 0
- total number of Nematodirus remaining (Nematodirus [2]; 100 mg./kg.): 0
- mean percentage efficacy against Nematodirus (Nematodirus [2]; 100 mg./kg.): 100%
- number of Nematodirus recovered at necropsy, individual lamb (Nematodirus [2]; 200 mg./kg.): 0
- average number of Nematodirus remaining (Nematodirus [2]; 200 mg./kg.): 0
- total number of Nematodirus remaining (Nematodirus [2]; 200 mg./kg.): 0
- mean percentage efficacy against Nematodirus (Nematodirus [2]; 200 mg./kg., *= only one lamb infected): 100%
- activity against Ostertagia (egg counts and necropsy) (Ostertagia [3]; 300 mg./kg. oral): established activity
- activity against Ostertagia (Ostertagia [3]; 400 mg./kg. oral): Activity
- signs of toxicity to the lambs (lambs): absence of signs of toxicity
- activity against Trichostrongylus (egg counts and necropsy) (Trichostrongylus [4]; 300 mg./kg. oral): established activity
- activity against Trichostrongylus (Trichostrongylus [4]; 400 mg./kg. oral): Activity
- efficacy against Haemonchus (in words) (Haemonchus [5]; 100 mg. and 200 mg. per kg): efficacious
- number of Haemonchus recovered at necropsy, individual lamb (Haemonchus [5]; 100 mg./kg.): 2 and 0
- average number of Haemonchus remaining (Haemonchus [5]; 100 mg./kg.): < 1
- total number of Haemonchus remaining (Haemonchus [5]; 100 mg./kg.): 2
- mean percentage efficacy against Haemonchus (Haemonchus [5]; 100 mg./kg.): 99.9%
- number of Haemonchus recovered at necropsy, individual lamb (Haemonchus [5]; 200 mg./kg.): 0 and 1
- average number of Haemonchus remaining (Haemonchus [5]; 200 mg./kg.): < 1
- total number of Haemonchus remaining (Haemonchus [5]; 200 mg./kg.): 1
- mean percentage efficacy against Haemonchus (Haemonchus [5]; 200 mg./kg.): 99.9%
- activity against Trichuris ovis (Trichuris ovis): lack of noticeable activity
- efficacy against Trichostrongylus (in words) (Trichostrongylus [6]; 100 mg. and 200 mg. per kg): efficacious
- number of Trichostrongylus recovered at necropsy, individual lamb (Trichostrongylus [6]; 100 mg./kg.): 0 and 15
- average number of Trichostrongylus remaining (Trichostrongylus [6]; 100 mg./kg.): 4
- total number of Trichostrongylus remaining (Trichostrongylus [6]; 100 mg./kg.): 15
- mean percentage efficacy against Trichostrongylus (Trichostrongylus [6]; 100 mg./kg.): 98.7%
- number of Trichostrongylus recovered at necropsy, individual lamb (Trichostrongylus [6]; 200 mg./kg.): 0
- average number of Trichostrongylus remaining (Trichostrongylus [6]; 200 mg./kg.): 0
- total number of Trichostrongylus remaining (Trichostrongylus [6]; 200 mg./kg.): 0
- mean percentage efficacy against Trichostrongylus (Trichostrongylus [6]; 200 mg./kg.): 100%
- overall anthelmintic activity in lambs (helminths [7]): excellent activity
- effectiveness of the dosage (helminths [8]; 200 mg./kg. oral): somewhat effective
- helminth eggs in the feces (helminths [8]; 200 mg./kg. oral): significantly fewer helminth eggs in the feces
- numbers of helminths at necropsy (helminths [8]; 200 mg./kg. oral): reduced numbers of helminths at necropsy
- helminth egg counts (helminths [8]; 300 mg./kg. oral): reduced significantly (except Trichuris)
- worm infestation on necropsy (helminths [8]; 300 mg./kg. oral): low
- egg counts (helminths [8]; 400 mg./kg. oral): significantly lowered egg counts
- worms at necropsy (helminths [8]; 400 mg./kg. oral): absence of worms
- anthelmintic activity (parasitic worms): effective against worms; also recorded: efficacious anthelmintic agents
- number of Trichuris recovered at necropsy, individual lamb (Trichuris; 100 mg./kg.): 31 and 83 and 3 and 37 and 4
- average number of Trichuris remaining (Trichuris; 100 mg./kg.): 32
- total number of Trichuris remaining (Trichuris; 100 mg./kg.): 158
- mean percentage efficacy against Trichuris (Trichuris; 100 mg./kg., vs unmedicated controls): 0%
- number of Trichuris recovered at necropsy, individual lamb (Trichuris; 200 mg./kg.): 6 and 64 and 28 and 56
- average number of Trichuris remaining (Trichuris; 200 mg./kg.): 39
- total number of Trichuris remaining (Trichuris; 200 mg./kg.): 154
- activity against Strongyloides (egg counts and necropsy) (Strongyloides [9]; 300 mg./kg. oral): established activity
- activity against Strongyloides (Strongyloides [9]; 400 mg./kg. oral): Activity
- efficacy against Oesophagostomum (in words) (Oesophagostomum [10]; 100 mg. and 200 mg. per kg): efficacious
- number of Oesophagostomum recovered at necropsy, individual lamb (Oesophagostomum [10]; 100 mg./kg.): 0
- average number of Oesophagostomum remaining (Oesophagostomum [10]; 100 mg./kg.): 0
- total number of Oesophagostomum remaining (Oesophagostomum [10]; 100 mg./kg.): 0
- mean percentage efficacy against Oesophagostomum (Oesophagostomum [10]; 100 mg./kg.): 100%
- number of Oesophagostomum recovered at necropsy, individual lamb (Oesophagostomum [10]; 200 mg./kg.): 0 and 3
- average number of Oesophagostomum remaining (Oesophagostomum [10]; 200 mg./kg.): < 1
- total number of Oesophagostomum remaining (Oesophagostomum [10]; 200 mg./kg.): 3
- mean percentage efficacy against Oesophagostomum (Oesophagostomum [10]; 200 mg./kg.): 90.6%
- activity against Oesophagostomum (egg counts and necropsy) (Oesophagostomum [11]): established activity
- number of Bunostomum recovered at necropsy, individual lamb (Bunostomum): 2 and 1
- average number of Bunostomum remaining (Bunostomum; group average): 1.5
- total number of Bunostomum remaining (Bunostomum; group total): 3
- mean percentage efficacy against Bunostomum (Bunostomum; vs unmedicated controls): 97%
- activity against Nematodirus (egg counts and necropsy) (Nematodirus [12]; 300 mg./kg. oral): established activity
- activity against Nematodirus (Nematodirus [12]; 400 mg./kg. oral): Activity
- activity against the tapeworm Moniezia (tapeworm Moniezia; 100 mg. and 200 mg. per kg): activity against the tapeworm Moniezia was observed
- activity against tapeworm (tapeworm Moniezia; 200 mg./kg.): positive
- number of tapeworm recovered at necropsy, individual lamb (tapeworm Moniezia; 200 mg./kg.): 0
- average number of tapeworm remaining (tapeworm Moniezia; 200 mg./kg., group average): 0
- total number of tapeworm remaining (tapeworm Moniezia; 200 mg./kg., group total): 0
- efficacy against Ostertagia (in words) (Ostertagia [13]; 100 mg. and 200 mg. per kg): efficacious
- number of Ostertagia recovered at necropsy, individual lamb (Ostertagia [13]; 100 mg./kg.): 0
- average number of Ostertagia remaining (Ostertagia [13]; 100 mg./kg.): 0
- total number of Ostertagia remaining (Ostertagia [13]; 100 mg./kg.): 0
- mean percentage efficacy against Ostertagia (Ostertagia [13]; 100 mg./kg.): 100%
- number of Ostertagia recovered at necropsy, individual lamb (Ostertagia [13]; 200 mg./kg.): 0
- average number of Ostertagia remaining (Ostertagia [13]; 200 mg./kg.): 0
- total number of Ostertagia remaining (Ostertagia [13]; 200 mg./kg.): 0
- mean percentage efficacy against Ostertagia (Ostertagia [13]; 200 mg./kg.): 100%
- efficacy against Cooperia (in words) (Cooperia; 100 mg. and 200 mg. per kg): efficacious
- number of Cooperia recovered at necropsy, individual lamb (Cooperia; 100 mg./kg.): 0
- average number of Cooperia remaining (Cooperia; 100 mg./kg.): 0
- total number of Cooperia remaining (Cooperia; 100 mg./kg.): 0
- mean percentage efficacy against Cooperia (Cooperia; 100 mg./kg., *= only one lamb infected): 100%
- number of Cooperia recovered at necropsy, individual lamb (Cooperia; 200 mg./kg.): 0
- average number of Cooperia remaining (Cooperia; 200 mg./kg.): 0
- total number of Cooperia remaining (Cooperia; 200 mg./kg.): 0
- mean percentage efficacy against Cooperia (Cooperia; 200 mg./kg.): 100%
- activity against Haemonchus (egg counts and necropsy) (Haemonchus [14]): established activity

Reference: patent publication US4017540A, “Method of use, composition, and compounds” (The Upjohn Company, priority 1972, dated 1977)
